Test results taken from patent US20240174680A1, “CDK2 INHIBITORS AND METHODS OF USING THE SAME” (Cedilla Therapeutics, Inc., priority 2021, published 2024).

Experiments:
Kuramochi cells = assay: BrdU cell proliferation assay (colorimetric ELISA); assay type: cell-based; settings: read-out: BrdU - KURAMOCHI.1: IC50
Procedure: A BrdU assay was used as a measure of proliferation based on the DNA replication process of proliferating cells. BrdU, a pyrimidine analog, is added to the cell culture and incorporated into the DNA of proliferating cells. The presence of the BrdU analog was then measured through a colorimetric ELISA. After fixation and permeabilization of cells, peroxidase-conjugated antibody recognizing BrdU is added and allowed to incubate, followed by thorough washing to remove unbound antibody. In order to quantify the amount of bound antibody, peroxidase substrate is added and produces a color that can be measured at 450 nm.
On day −1, Kuramochi cells (Sekisui XenoTech JCRB0098) were seeded at 2,000 cells/well in columns 2-12 of a 96 well plate (Corning, CLS3596) in 150 μL media and allowed to adhere overnight at 37 degree with 5% CO2.
On day 0, the source plate was prepared by adding 10 mM compounds and performing 3-fold serial dilutions for a 10-point dose response of each compound. Using a multichannel pipette, 2 μL of the contents of the source plate were stamped into an intermediate plate with 500 μL of RPMI 1640 Media, GlutaMAX Supplement (Life Technologies, 61870127) in each well of a Nunc 96 DeepWell™ plate, non-treated 96 DeepWell plate, 2 mL/well, sterile, natural, 60/cs (Sigma Z717274) and mixed thoroughly. 50 μL from each well of this intermediate plate were added to 4 wells of a 96-well plate with previously seeded Kuramochi cells.
On day 4, the plates were developed using the BrdU ELISA Cell Proliferation Assay according to manufacturer's instructions (Roche, 11647229001). Briefly, BrdU was diluted 1:100 in Gibco®, OptiMEM® and 20 μL/well was added, shaken for 10 minutes at 350 rpm, and then returned to the incubator for 1 hour. Following incubation, the medium was discarded, and the cells were fixed by adding 200 μL of Fix/Denature solution. The anti-BrdU peroxidase antibody was diluted 1:1000 in OptiMEM, added at 100 μL/well, and incubated while shaking (350 rpm) for one hour. Three washes with PBS were performed to remove any unbound antibody, followed by the addition of 100 μL of substrate solution to each well. 25 μL/well of 1M sulfuric acid solution was then added to halt the reaction, and plates were read out using an Envision spectrophotometer (Perkin Elmer) set to read 450 nm absorbance. Background absorbance values from empty wells were subtracted from all samples and then normalized to DMSO treated wells.

[1] = test system: Kuramochi cells labeled with mApple-H2B; assay: IncuCyte cell proliferation assay; assay type: cell-based; settings: 72 hours
Procedure: IncuCyte® assay was used to measure the effect of disclosed compounds on cell proliferation. Fluorescent microscopy images of cells were taken immediately after compound treatment and 72 hours later. Image analysis software was used to obtain cell counts as a function of compound concentration. Kuramochi cells labeled with mApple-H2B were seeded on 384-well assay-ready plates. Plates were placed in an IncuCyte® (Sartorius) and scanned at 0 and 72 hours. IncuCyte® software was used to count the number of fluorescent nuclei in each well. The fold change in cell count from 0 to 72 hours in wells treated with increasing compounds concentrations (10 pts, 1/2 log dilution, 20 μM top concentration) was normalized to DMSO control wells. The normalized cell counts were fit with dose response curves and a […] was calculated.
Compounds with an ICp greater than 0.5 μM and less than or equal to 5.0 μM are designated as “B”.

CDK2/Cyclin E1 [2] = biological target: T1, CDK2/Cyclin E1 (Homo sapiens, UniProt P24941); assay: CDK2/Cyclin E1 Caliper LabChip EZ Reader mobility shift assay; assay type: biochemical; design: purchased Eurofins 14-475; settings: read-out: Caliper Assay (CDK2/CCNE1): IC50
Procedure, shortened: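 Substrate-to-product conversion of fluorescent peptide (1.5 μM final) read by capillary electrophoresis after 100 min reaction, EDTA-quenched. Enzyme (2.5 nM final) and ATP (100 μM final) were preincubated 30 min with inhibitor dilutions first. % activity vs concentration fitted four-parameter for IC50.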

CDK2/Cyclin E1 [3] = biological target: T1, CDK2/Cyclin E1; assay: HotSpot kinase inhibition assay (radiometric, Histone H1 substrate); assay type: biochemical; settings: 10 μM ATP, read-out: Kinase Assay (CDK2/CCNE): IC50
Procedure: Inhibition of CDK2/CCNE1 activities in the presence of compounds of the present disclosure was evaluated using the HotSpot™ assay (proprietary to Reaction Biology Corporation). In the assay, CDK2/Cyclin E1 (Signalchem C29-18G) catalyzed the transfer of radioactive phosphate to amino acid residues of Histone H1 (Sigma, H5505), which are detected radiometrically.
Reactions contained 20 mM HEPES pH 7.5, 10 mM MgCl2, 1 mM EGTA, 2 mM DTT, 0.02% Brij35, 0.02 mg/mL BSA, 0.1 mM Na3VO4, 1% DMSO, 1.5 nM CDK2/Cyclin E1, 10 μM ATP, and 20 μM Histone H1.
CDK2/Cyclin E1 and Histone H1 were mixed in reaction buffer. To this mixture dose titrations of inhibitors in 100% DMSO were added in by acoustic transfer. The compound mixtures were incubated for 20 minutes, then the kinase reactions were initiated by the addition of a mixture of ATP and ^33P ATP for final concentrations of 10 μM total ATP, 20 μM Histone H1, and 1.5 nM CDK2/Cyclin E1. The reactions were carried out for 120 minutes, then spotted on a P81 ion exchange filter paper, and extensively washed with 0.75% phosphoric acid. The resulting radioactive counts were normalized to yield % activity, plotted against compound concentration, and fit to a four-parameter equation to determine the IC50 for each compound.

Structure (SMILES) | IC50 (Kuramochi cells) | IC50 [1] | IC50 (CDK2/Cyclin E1 [2]) | IC50 (CDK2/Cyclin E1 [3])
C[C@@H](OCC1CCC(F)(F)CC1)[C@H](NC(=O)C1CN(C(=O)c2cnn(Cc3ccc(F)cc3)c2)CC12CN(C(=O)C1(C(F)(F)F)CC1)C2)C(=O)N1CCC(F)(F)CC1 (single isomer, unassigned) [I-190B] | 0.5 to 5 µM | 5 to 20 µM | – | –
CNC(=O)[C@@H](NC(=O)[C@@H]1CN(C(=O)c2cncs2)CC12CN(CC1CCOCC1)C2)[C@@H](C)OCC12CCC(CC1)OC2 [I-346] | > 10 µM | > 20 µM | > 10 µM | –
COCC1CCCN(C(=O)[C@@H](NC(=O)[C@H]2CN(C(=O)c3cnn(Cc4ccccc4)c3)CC23CN(C(=O)[C@H]2CC2(C)C)C3)[C@@H](C)OCC2CCCCC2)C1 (some centres unmarked) [I-111] | ≤ 0.5 µM | 0.5 to 5 µM | – | –
CNC(=O)[C@@H](NC(=O)[C@H]1CN(Cc2cnn(C)c2)CC12CN(C(=O)[C@H]1CC1(C)C)C2)[C@@H](C)OCc1ccccc1 [I-47B] | > 10 µM | – | > 10 µM | –
C[C@@H](OCc1ccccc1)[C@H](NC(=O)C1CN(C(=O)c2cnn(Cc3ccccc3)c2)CC12CN(C(=O)C1CC1(C)C)C2)C(=O)NCCCCCN (some centres unmarked) [I-57] | > 10 µM | – | – | –
CNC(=O)[C@@H](NC(=O)[C@H]1CN(C(=O)c2cnn(Cc3ccccc3)c2)CC12CN(C(=O)CC1CC1)C2)[C@@H](C)OCc1ccccc1 [I-8B] | – | – | 1 to 10 µM | 10 to 100 µM
Cc1ccc(CNC(=O)[C@@H]2CN(C(=O)c3cncs3)CC23CN(C(=O)[C@H]2CC2(C)C)C3)nn1 [I-378] | – | – | > 10 µM | 10 to 100 µM
COC[C@H]1CCCN(C(=O)[C@@H](NC(=O)[C@@H]2CN(C(=O)c3cncs3)CC23CN(C(=O)[C@H]2CC2(C)C)C3)[C@@H](C)O[C@H](C)C2CCCCC2)C1 [I-367] | – | – | ≤ 0.01 µM | ≤ 1 µM
CNC(=O)[C@@H](NC(=O)[C@@H]1CN(C(=O)c2cnn(Cc3ccccc3)c2)CC12CN(C(=O)OC(C)(C)C)C2)[C@@H](C)OCc1ccccc1 [I-3A, tert-butyl (S)-6-(1-benzyl-1H-pyrazole-4-carbonyl)-8-(((2S,3R)-3-(benzyloxy)-1-(methylamino)-1-oxobutan-2-yl)carbamoyl)-2,6-diazaspiro[3.4]octane-2-carboxylate] | – | – | 0.1 to 1 µM | ≤ 1 µM
CC1(C)C[C@@H]1C(=O)N1CC2(CN(C(=O)c3cnn(Cc4ccccc4)c3)C[C@H]2C(=O)N2CC[C@H](OCC3CCCCC3)C2)C1 [I-256] | – | – | 0.1 to 1 µM | 1 to 10 µM
CC1(C)C[C@@H]1C(=O)N1CC2(CN(C(=O)c3cnn(Cc4ccccc4)c3)C[C@H]2C(=O)NCc2ccc(Cl)nn2)C1 [I-376] | – | – | 1 to 10 µM | 1 to 10 µM
CC1(C)C[C@@H]1C(=O)N1CC2(CN(C(=O)c3cnn(Cc4ccccc4)c3)C[C@H]2C(=O)N2CCN(CC3CCCCC3)C(=O)C2)C1 [I-253] | – | – | 0.1 to 1 µM | 1 to 10 µM
C[C@@H](OCC1CCOCC1)[C@@H](COC(F)F)NC(=O)[C@@H]1CN(C(=O)c2cncs2)CC12CN(C(=O)[C@H]1CC1(C)C)C2 [I-441] | – | > 20 µM | – | –
C[C@@H](OCC1CCOCC1)[C@H](NC(=O)[C@@H]1CN(C(=O)c2cncs2)CC12CN(C(=O)[C@H]1CC1(C)C)C2)C(=O)N1CCC(c2ccncc2)CC1 [I-442] | – | 5 to 20 µM | – | –
C[C@@H](OCc1ccccc1)[C@H](NC(=O)C1CN(C(=O)c2cnn(Cc3ccccc3)c2)CC12CN(C(=O)C1CC1(C)C)C2)C(=O)NCCCCCNC(=O)OC(C)(C)C (some centres unmarked) [I-52] | 0.5 to 5 µM | 0.5 to 5 µM | – | –
CNC(=O)[C@@H](NC(=O)[C@@H]1CN(C(=O)c2cnn(Cc3ccccc3)c2)CC12CN(C(=O)CC1CC1)C2)[C@@H](C)OCc1ccccc1 [I-8A] | – | – | 1 to 10 µM | 1 to 10 µM
Cc1ccc(CNC(=O)[C@@H]2CN(C(=O)c3cnn(Cc4ccccc4)c3)CC23CN(C(=O)[C@H]2CC2(C)C)C3)nn1 [I-252] | – | – | 0.1 to 1 µM | ≤ 1 µM
CNC(=O)[C@@H](NC(=O)[C@@H]1CN(C(=O)c2cncs2)CC12CN(C(=O)[C@H]1CC1(C)C)C2)c1nnc(C2CCCCC2)o1 [I-429] | > 10 µM | > 20 µM | – | –
CC(C)O[C@H]1C[C@@H](NC(=O)[C@@H]2CN(C(=O)c3cnn(Cc4ccccc4)c3)CC23CN(C(=O)[C@H]2CC2(C)C)C3)C1 [I-234] | > 10 µM | – | > 10 µM | –
C[C@@H](OCC1CCC(F)(F)CC1)[C@H](NC(=O)[C@@H]1CN(C(=O)c2cnn(Cc3ccc(F)cc3)c2)CC12CN(C(=O)C1(C(F)(F)F)CC1)C2)C(=O)N1CCC(F)(F)CC1 [I-190A] | – | ≤ 0.5 µM | 0.01 to 0.1 µM | –
